Legend:
Format in all cases: cell-based
[1] = test system: Serratia marcescens ATCC 890; experiment: Antibiotic spectrum profile, agar zone of inhibition; conditions: ATCC890, 0.015 ml of 9.5 μg/ml aqueous solution, 25° C., read-out: Inhib. Zone Diam.
Description: The test to determine the antibiotic spectrum profiles of antibiotic 890A10 is carried out by application of a 0.015 ml. droplet of a 9.5 μg./ml. aqueous solution of the antibiotic on the surface of a 100×15 mm. petri plate containing 3 ml. of seeded nutrient agar plus 0.2% yeast extract which is incubated at 25° C.

[2] = test system: Pseudomonas aeruginosa MB No. 979; experiment: as above; conditions: MBNO.979, 0.015 ml of 9.5 μg/ml aqueous solution, 25° C., read-out: Inhib. Zone Diam.
[3] = test system: Staphylococcus aureus ATCC 6538 P; experiment: as above; conditions: ATCC6538, 0.015 ml of 9.5 μg/ml aqueous solution, 25° C., read-out: Inhib. Zone Diam.
[4] = test system: Bacillus subtilis ATCC 6633; experiment: as above; conditions: ATCC6633, 0.015 ml of 9.5 μg/ml aqueous solution, 25° C., read-out: Inhib. Zone Diam.
[5] = test system: Alcaligenes faecalis ATCC 213; experiment: as above; conditions: ATCC213, 0.015 ml of 9.5 μg/ml aqueous solution, 25° C., read-out: Inhib. Zone Diam.
[6] = test system: Brucella bronchiseptica ATCC 4617; experiment: microbe, parasite or virus in culture; conditions: Bordetella bronchiseptica, ATCC4617, read-out: Inhib. Zone Diam.
[7] = test system: Vibrio percolans ATCC 8461; experiment: Antibiotic spectrum profile, agar zone of inhibition; conditions: Comamonas terrigena, ATCC8461, 0.015 ml of 9.5 μg/ml aqueous solution, 25° C., read-out: Inhib. Zone Diam.
[8] = test system: Xanthomonas vesicatoria MB No. 815; experiment: as above; conditions: MBNO.815, 0.015 ml of 9.5 μg/ml aqueous solution, 25° C., read-out: Inhib. Zone Diam.
[9] = test system: Pseudomonas aeruginosa MB No. 2824; experiment: as above; conditions: MBNO.2824, 0.015 ml of 9.5 μg/ml aqueous solution, 25° C., read-out: Inhib. Zone Diam.
[10] = test system: Corynebacterium psedodiph. ATCC 9742; experiment: as above; conditions: ATCC9742, 0.015 ml of 9.5 μg/ml aqueous solution, 25° C., read-out: Inhib. Zone Diam.
[11] = test system: Escherichia coli ATCC 9637; experiment: as above; conditions: ATCC9637, 0.015 ml of 9.5 μg/ml aqueous solution, 25° C., read-out: Inhib. Zone Diam.
[12] = test system: Streptococcus faecium MB No. 2820; experiment: as above; conditions: Enterococcus faecium, MBNO.2820, 0.015 ml of 9.5 μg/ml aqueous solution, 25° C., read-out: Inhib. Zone Diam.
[13] = test system: Streptococcus agalactiae MB No. 2875; experiment: as above; conditions: MBNO.2875, 0.015 ml of 9.5 μg/ml aqueous solution, 25° C., read-out: Inhib. Zone Diam.
[14] = test system: Vibrio percolans ATCC 8461; experiment: Antibiotic spectrum profile, agar zone of inhibition, with penicillinase; conditions: Comamonas terrigena, ATCC8461; 0.015 ml of 9.5 μg/ml aqueous solution; 25° C.; Vibrio Percolans ATCC 8461 + 2×10^5 u/ml penicillinase; read-out: Inhib. Zone Diam.
[15] = test system: Vibrio percolans ATCC 8461; experiment: Bioassay, agar plate disc-diffusion, 890A1 standard; conditions: measured against standard of antibiotic 890A1 (defined as 250 units per HAEA300 unit)
Description: An agar plate disc-diffusion method is employed using Vibrio percolans ATCC 8461 as tester organism. A purified sample of antibiotic 890A1 is used as standard. Antibiotic 890A1 is prepared according to the procedure set forth in Example 6.
Plates containing Vibrio percolans ATCC 8461 are prepared as follows:
A lyophilized culture of Vibrio percolans ATCC 8461 is suspended in 15 ml. of a sterilized medium containing 8 g./liter of Difco Nutrient Broth and 2 g./liter of yeast extract in distilled water "nutrient broth-yeast extract" (herein after designated NBYE). The culture is incubated overnight on a rotary shaker at 28° C. This culture is used to inoculate the surface of slants containing 1.5% agar in NBYE, and the inoculated slants are incubated overnight at 28° C., and then stored in a refrigerator. […]
Filter paper discs of one-half inch diameter are dipped into the solution to be assayed, and are placed on the agar. […] The diameter of the zone of inhibition is measured after appropriate incubation (12-14 hours at 25° C.). […]
Calculations of potencies proceed as follows: a slope is determined by measuring the zone diameters of a solution of antibiotic 890A10 and of a fourfold dilution (in KPB) of this solution. Two discs of each concentration are assayed on a single plate, and the average zone size at each concentration is determined. […] Potencies are then calculated by the formula: [formula] […]

## CC(=O)NCCSC1=C(C(=O)O)N2C(=O)C(C(C)OS(=O)(=O)O)C2C1 (stereo not drawn) [Antibiotic 890A10]
[1]
  zone of inhibition at 9.5 µg/mL: 15 mm
[2]
  zone of inhibition at 9.5 µg/mL: 0 mm
[3]
  zone of inhibition at 9.5 µg/mL: 20 mm
[4]
  zone of inhibition at 9.5 µg/mL: 30 mm
[5]
  zone of inhibition at 9.5 µg/mL: 24 mm
[6]
  zone of inhibition at 9.5 µg/mL: 0 mm
[7]
  zone of inhibition at 9.5 µg/mL: 33 mm
[8]
  zone of inhibition at 9.5 µg/mL: 20 mm
[9]
  zone of inhibition at 9.5 µg/mL: 0 mm
[10]
  zone of inhibition at 9.5 µg/mL: 12 mm
[11]
  zone of inhibition at 9.5 µg/mL: 17 mm
[12]
  zone of inhibition at 9.5 µg/mL: 0 mm
[13]
  zone of inhibition at 9.5 µg/mL: 29 mm
[14]
  zone of inhibition at 9.5 µg/mL: 25 mm
[15]
  bioassay units per HAEA300 unit: 174 bioassay units per HAEA300 unit

Source: patent US4264736A, “Antibiotic 890A10” (Merck & Co., Inc., priority 1979, dated 1981)
